From ChEMBL document CHEMBL1201862, “PubChem BioAssay data set” (2004)
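Cultured in 96-well plates, cells were exposed to test compound for 48 hours across five concentrations. At the GI50, growth is halved.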 Calls of active or inactive are those of the source. Cut-off read from the data, not from the text of the source: active = GI50 up to about 1.1 µM and inactive = higher.

How the values were obtained:
Test in all cases: DTP human tumour cell line panel, 48 h
HCT-116 = test system: HCT-116
MDA-MB-435 = test system: MDA-MB-435
HL-60 = test system: HL-60
OVCAR-4 = test system: OVCAR-4
A549 = test system: A549
KM12 = test system: KM12
NCI-H522 = test system: NCI-H522
UACC-257 = test system: UACC-257
SNB-19 = test system: SNB-19
HCT-15 = test system: HCT-15
UO-31 = test system: UO-31
LOX IMVI = test system: LOX IMVI
SK-MEL-28 = test system: SK-MEL-28
SK-MEL-2 = test system: SK-MEL-2
SF-539 = test system: SF-539
SNB-75 = test system: SNB-75
U-251 = test system: U-251
MOLT-4 = test system: MOLT-4
BT-549 = test system: BT-549

Structure (SMILES)	GI50 (HCT-116)	GI50 (MDA-MB-435)	GI50 (HL-60)	GI50 (OVCAR-4)	GI50 (A549)	GI50 (KM12)	GI50 (NCI-H522)	GI50 (UACC-257)	GI50 (SNB-19)	GI50 (HCT-15) [µM]	GI50 (UO-31)	GI50 (LOX IMVI)	GI50 (SK-MEL-28)	GI50 (SK-MEL-2)	GI50 (SF-539)	GI50 (SNB-75)	GI50 (U-251)	GI50 (MOLT-4)	GI50 (BT-549)
Clc1cc(C(c2cc(Cl)sc2Cl)c2cc(Cl)sc2Cl)c(Cl)s1	> 82.2 µM (inactive)	> 100 µM (inactive)	> 100 µM (inactive)	> 100 µM (inactive)	> 100 µM (inactive)	> 100 µM (inactive)	> 100 µM (inactive)	> 100 µM (inactive)	> 100 µM (inactive)	> 100	> 100 µM (inactive)	> 100 µM (inactive)	> 100 µM (inactive)	> 100 µM (inactive)	> 100 µM (inactive)	> 100 µM (inactive)	> 100 µM (inactive)	> 81.7 µM (inactive)	
Cn1c(-c2ccc(-c3cc(-c4cccs4)c(-c4cccs4)n3C)cc2)cc(-c2cccs2)c1-c1cccs1	> 100 µM (inactive)	> 100 µM (inactive)	> 100 µM (inactive)	> 100 µM (inactive)	> 100 µM (inactive)	> 100 µM (inactive)		> 100 µM (inactive)	> 100 µM (inactive)	> 100	> 100 µM (inactive)		> 100 µM (inactive)	> 100 µM (inactive)	> 100 µM (inactive)	> 100 µM (inactive)	> 100 µM (inactive)	> 100 µM (inactive)	
Cc1nc2c(n1-c1ccc(Br)cc1)C(=O)c1ccccc1C2=O	1.63 µM (inactive)	6.73 µM (inactive)	0.783 µM (active)	14.8 µM (inactive)	6.93 µM (inactive)	6.5 µM (inactive)	10.4 µM (inactive)	19.5 µM (inactive)	3.6 µM (inactive)	1.04	7.76 µM (inactive)	2.62 µM (inactive)	12.9 µM (inactive)	66.4 µM (inactive)	7.66 µM (inactive)	20 µM (inactive)	3.54 µM (inactive)	0.989 µM (active)	
C/C(=C\c1ccc2c(c1)OCO2)[N+](=O)[O-]	7.16 µM (inactive)	2.21 µM (inactive)	1.46 µM (inactive)	4.4 µM (inactive)	4.2 µM (inactive)	1.54 µM (inactive)	1.64 µM (inactive)	2.43 µM (inactive)	2.49 µM (inactive)	1.96	1.19 µM (inactive)	0.315 µM (active)	2.74 µM (inactive)	2.99 µM (inactive)	2.91 µM (inactive)	5.16 µM (inactive)	1.79 µM (inactive)	0.195 µM (active)	
CNC(=O)N(C)C(=O)c1ccccc1C(=O)N(C)C(=O)NC	> 10 µM (inactive)		> 10 µM (inactive)	> 10 µM (inactive)	> 10 µM (inactive)	> 10 µM (inactive)	> 10 µM (inactive)	> 10 µM (inactive)	> 10 µM (inactive)	> 10	> 10 µM (inactive)	> 10 µM (inactive)	> 10 µM (inactive)	> 10 µM (inactive)	> 10 µM (inactive)	> 10 µM (inactive)	> 10 µM (inactive)	> 10 µM (inactive)	> 10 µM (inactive)
CN(C)c1ccc(C2CC(C)(O)Oc3cc4c(cc32)OCO4)cc1 (stereo not given)	34.5 µM (inactive)	13.6 µM (inactive)	46.3 µM (inactive)		43.7 µM (inactive)	30 µM (inactive)	19.1 µM (inactive)	62.4 µM (inactive)	98.9 µM (inactive)	29.9	30.7 µM (inactive)	31.6 µM (inactive)	36.9 µM (inactive)	22.2 µM (inactive)	34.1 µM (inactive)	25.3 µM (inactive)	43.8 µM (inactive)	> 100 µM (inactive)	
CC1=NN(c2cccc(Cl)c2)C2(SCC(=O)N2c2nc3ccccc3s2)/C1=C\c1ccccc1O (stereo not given)	14.9 µM (inactive)	21.3 µM (inactive)	14.2 µM (inactive)	21.4 µM (inactive)		19.7 µM (inactive)	19.8 µM (inactive)	31.4 µM (inactive)		14.6	15.7 µM (inactive)	30.5 µM (inactive)	24.8 µM (inactive)	17.6 µM (inactive)	33.5 µM (inactive)		19.2 µM (inactive)	11.9 µM (inactive)	
CC(C)c1cc(=O)[nH]c2cc(N)ccc12	> 100 µM (inactive)	> 100 µM (inactive)		> 100 µM (inactive)	> 100 µM (inactive)	> 100 µM (inactive)		> 100 µM (inactive)	> 100 µM (inactive)	> 100	> 100 µM (inactive)	> 100 µM (inactive)	> 100 µM (inactive)	> 100 µM (inactive)	> 100 µM (inactive)	86.9 µM (inactive)	> 100 µM (inactive)	> 100 µM (inactive)	> 100 µM (inactive)
COc1ccc(CC2C3=C(CCN2C(=O)C2CCC2)CC2(CC3)OCCO2)cc1O (stereo not given)	34.6 µM (inactive)	6.7 µM (inactive)	18.8 µM (inactive)	41.4 µM (inactive)	40.9 µM (inactive)	31.3 µM (inactive)	17.9 µM (inactive)	30.5 µM (inactive)	45.6 µM (inactive)	14.9	0.182 µM (active)	> 100 µM (inactive)	55.2 µM (inactive)	49.3 µM (inactive)	27.9 µM (inactive)	15 µM (inactive)	39.9 µM (inactive)	37 µM (inactive)	
CO/C(=N\N=C\c1ccc(OC)c(OC)c1)c1ccncc1			> 10 µM (inactive)	> 10 µM (inactive)	> 10 µM (inactive)	> 10 µM (inactive)		> 10 µM (inactive)		> 10	9.55 µM (inactive)	> 10 µM (inactive)			> 10 µM (inactive)	> 10 µM (inactive)	> 10 µM (inactive)	> 10 µM (inactive)	> 10 µM (inactive)
C/C(=N/NC(=S)Nc1ccc(Cl)cc1)c1cccc(/C(C)=N\NC(=S)Nc2ccc(Cl)cc2)n1	2.9 µM (inactive)	12.3 µM (inactive)		13.4 µM (inactive)	5.55 µM (inactive)	3.66 µM (inactive)	4.29 µM (inactive)	4.5 µM (inactive)	9.73 µM (inactive)	2.47	5.92 µM (inactive)	4.58 µM (inactive)	23.2 µM (inactive)	5.41 µM (inactive)	1.48 µM (inactive)	7.48 µM (inactive)	6.3 µM (inactive)	2.34 µM (inactive)	
CCN(CC)CC1CCCCN1CC(=O)N1c2ccc(Br)cc2C(=O)Nc2cccnc21 (stereo not given)	> 100 µM (inactive)	> 100 µM (inactive)	> 100 µM (inactive)	> 100 µM (inactive)	> 100 µM (inactive)	> 100 µM (inactive)	> 100 µM (inactive)	74.8 µM (inactive)	> 100 µM (inactive)	> 100	27.2 µM (inactive)	> 100 µM (inactive)	> 100 µM (inactive)	> 100 µM (inactive)	> 100 µM (inactive)	12.3 µM (inactive)	> 100 µM (inactive)	> 100 µM (inactive)	
O=C1OC([C@H](O)c2cccnc2)c2ccccc21 (stereo not given in full)	> 10 µM (inactive)	> 10 µM (inactive)	> 10 µM (inactive)	> 10 µM (inactive)	> 10 µM (inactive)	> 10 µM (inactive)	> 10 µM (inactive)	> 10 µM (inactive)	> 10 µM (inactive)	> 10	> 10 µM (inactive)	> 10 µM (inactive)	> 10 µM (inactive)	> 10 µM (inactive)	> 10 µM (inactive)	> 10 µM (inactive)	> 10 µM (inactive)	> 10 µM (inactive)	
CCOC1OCCCC1Br (stereo not given)	> 100 µM (inactive)	> 100 µM (inactive)		> 100 µM (inactive)	> 100 µM (inactive)	> 100 µM (inactive)	> 100 µM (inactive)	> 100 µM (inactive)	> 100 µM (inactive)	> 100	> 100 µM (inactive)	> 100 µM (inactive)	> 100 µM (inactive)	> 100 µM (inactive)	> 100 µM (inactive)	> 100 µM (inactive)		> 100 µM (inactive)	
CC1(C)N=c2[nH]cnc2=C(C(N)=O)N1	> 100 µM (inactive)	> 100 µM (inactive)	> 100 µM (inactive)	> 100 µM (inactive)	> 100 µM (inactive)	> 100 µM (inactive)	> 100 µM (inactive)	> 100 µM (inactive)	> 100 µM (inactive)	> 100		> 100 µM (inactive)	> 100 µM (inactive)	> 100 µM (inactive)	> 100 µM (inactive)	> 100 µM (inactive)	> 100 µM (inactive)		
O=S(=O)(O)c1ccc(/N=N/c2ccc3c(S(=O)(=O)O)cccc3c2O)c2ccccc12	> 100 µM (inactive)	> 100 µM (inactive)		> 100 µM (inactive)	> 100 µM (inactive)	> 100 µM (inactive)	> 100 µM (inactive)	> 100 µM (inactive)	> 100 µM (inactive)	> 100	39.3 µM (inactive)	> 100 µM (inactive)	> 100 µM (inactive)	> 100 µM (inactive)		> 100 µM (inactive)	> 100 µM (inactive)		> 100 µM (inactive)
COC(=O)NC1(NC(=O)OC)NC(=O)c2ccccc2N1	> 100 µM (inactive)		> 100 µM (inactive)	> 100 µM (inactive)	< 0.01 µM (active)	80.4 µM (inactive)	> 100 µM (inactive)	> 100 µM (inactive)	> 100 µM (inactive)	63.5	> 100 µM (inactive)		> 100 µM (inactive)	0.0145 µM (active)	> 100 µM (inactive)	36 µM (inactive)		> 100 µM (inactive)	> 100 µM (inactive)
